Test results published in patent publication US20230320362A1, “COMPOSITION AND METHOD FOR WEED AND GRASS CONTROL” (United Industries Corporation, priority 2022, published 2023).

system: weed or grass; test: not given; settings: Table 1 Notes; cited from earlier work

| Compound | residual activity (in words) | residual activity | residual |
| --- | --- | --- | --- |
| O=C(O)c1cc(Oc2ccc(C(F)(F)F)cc2Cl)ccc1[N+](=O)[O-] [Acifluorfen] | No residual activity | – | – |
| Nc1c([N+](=O)[O-])ccc(Oc2ccccc2)c1Cl [Aclonifen] | Moderate residual activity | – | – |
| CCCCCCCCC(=O)O.N [Ammonium nonanoate] | Top kill, no residual activity | – | – |
| Cc1ccc(C(=O)COc2c(C(=O)c3ccc(Cl)c(C)c3Cl)c(C)nn2C)cc1 [Benzafenap] | – | 38 days residual activity | – |
| CS(=O)(=O)c1ccc(C(=O)C2=C(Sc3ccccc3)C3CCC(C3)C2=O)c(Cl)c1 (stereo not drawn) [Benzobicyclon] | – | 14 days residual activity | – |
| COC(=O)c1cc(Oc2ccc(Cl)cc2Cl)ccc1[N+](=O)[O-] [Bifenox] | Six to eight weeks residual activity | – | – |
| C=CCOC(=O)C(C)(C)OC(=O)c1cc(-n2c(=O)cc(C(F)(F)F)n(C)c2=O)ccc1Cl [Butafenacil] | No residual activity | – | – |
| CCCCCCCC(=O)O [Caprylic/octanoic acid] | No residual activity | – | – |
| CCOC(=O)C(Cl)Cc1cc(-n2nc(C)n(C(F)F)c2=O)c(F)cc1Cl (stereo not drawn) [Carfentrazone-ethyl] | No residual activity | – | – |
| CCOC(=O)/C(Cl)=C/c1cc(N2C(=O)C3=C(CCCC3)C2=O)ccc1Cl [Cinidon-ethyl] | No residual activity | – | – |
| c1cc[n+]2c(c1)-c1cccc[n+]1CC2 [Diquat] | No residual activity | – | – |
| CCOC(=O)COc1cc(-n2ncc(C(F)(F)F)c(C)c2=O)c(F)cc1Cl [Flufenpyr-ethyl] | No residual activity | – | – |
| CCCCCOC(=O)COc1cc(N2C(=O)C3=C(CCCC3)C2=O)c(F)cc1Cl [Flumiclorac pentyl] | No residual activity | – | – |
| C#CCN1C(=O)COc2cc(F)c(N3C(=O)C4=C(CCCC4)C3=O)cc21 [Flumioxazin] | One to two weeks residual | – | – |
| CCOC(=O)COC(=O)c1cc(Oc2ccc(C(F)(F)F)cc2Cl)ccc1[N+](=O)[O-] [Fluoroglycofen-ethyl] | No residual activity | – | – |
| COC(=O)CSc1cc(/N=c2\sc(=O)n3n2CCCC3)c(F)cc1Cl [Fluthiacet-methyl] | No residual activity | – | – |
| CS(=O)(=O)NC(=O)c1cc(Oc2ccc(C(F)(F)F)cc2Cl)ccc1[N+](=O)[O-] [Fomesafen] | – | 12-month residual activity | – |
| CP(=O)(O)CCC(N)C(=O)O (stereo not drawn) [Glufosinate] | Kills shoots and roots, short residual activity | – | – |
| Cc1cnc(C2=NC(=O)C(C)(C(C)C)N2)c(C(=O)O)c1 (stereo not drawn) [Imazapic] | Four months residual activity | – | – |
| CC(C)C1(C)N=C(c2ncccc2C(=O)O)NC1=O (stereo not drawn) [Imazapyr] | Four months residual activity | – | – |

| Compound | residual activity (in words) | residual activity | residual |
| --- | --- | --- | --- |
| CCc1cnc(C2=NC(C)(C(C)C)C(=O)N2)c(C(=O)O)c1 (stereo not drawn) [Imazethapyr] | Two to three months residual | – | – |
| CC(C)N(C(=O)n1cnn(-c2ccc(Cl)cc2Cl)c1=O)c1ccc(F)cc1F [Ipfencarbazone] | – | 70 days residual activity | – |
| CS(=O)(=O)c1cc(C(F)(F)F)ccc1C(=O)c1cnoc1C1CC1 [Isoxaflutole] | No residual activity | – | – |
| CCOC(=O)C(C)OC(=O)c1cc(Oc2ccc(C(F)(F)F)cc2Cl)ccc1[N+](=O)[O-] (stereo not drawn) [Lactofen] | – | Very short residual activity (2-3 weeks) | – |
| CS(=O)(=O)c1ccc(C(=O)C2C(=O)CCCC2=O)c([N+](=O)[O-])c1 [Mesotrione] | – | Limited residual activity (6-15 days) | – |
| CC(C)Oc1cc(-n2nc(C(C)(C)C)oc2=O)c(Cl)cc1Cl [Oxadiazon] | – | Moderate residual activity (2 months) | – |
| CCOc1cc(Oc2ccc(C(F)(F)F)cc2Cl)ccc1[N+](=O)[O-] [Oxyfluorfen] | – | – | Kills shoots and roots, 30 d residual |
| CCCCCCCCC(=O)O [Pelargonic acid] | No residual activity | – | – |
| CC(C)=C1OC(=O)N(c2cc(OC3CCCC3)c(Cl)cc2F)C1=O [Pentoxazone] | No residual activity | – | – |
| CCOC(=O)COc1cc(-c2nn(C)c(OC(F)F)c2Cl)c(F)cc1Cl [Pyraflufen-ethyl] | Burndown activity with no residual | – | – |
| Cc1nn(C)c(OCC(=O)c2ccccc2)c1C(=O)c1ccc(Cl)cc1Cl [Pyrazoxyfen] | – | 4-15 days residual activity | – |
| CC(C)N(C)S(=O)(=O)NC(=O)c1cc(-n2c(=O)cc(C(F)(F)F)n(C)c2=O)c(F)cc1Cl [Saflufenacil] | No residual activity | – | – |
| CS(=O)(=O)c1ccc(C(=O)C2C(=O)CCCC2=O)c(Cl)c1 [Sulcotrione] | No residual activity | – | – |
| CS(=O)(=O)c1ccc(C(=O)C2C(=O)CCCC2=O)c(Cl)c1COCC(F)(F)F [Tembotrione] | – | 14 days residual activity | – |
| COC(=O)CCNC(=O)C(C)Sc1cc(-n2c(=O)cc(C(F)(F)F)n(C)c2=O)c(F)cc1Cl (stereo not drawn) [Tiafenacil] | Burndown with no residual activity | – | – |
| Cc1c(C(=O)c2cnn(C)c2O)ccc(S(C)(=O)=O)c1C1=NOCC1 [Topramezone] | – | 14 days residual activity | – |
| C#CCN1C(=O)C(F)(F)Oc2cc(F)c(-n3c(=O)n(C)c(=S)n(C)c3=O)cc21 [Trifludimoxazin] | – | Short residual activity of 40 days | – |
| Capric/decanoate acid of salt thereof | No residual activity | – | – |
| Oxadiargyl | Pre-emergent active | – | – |

system: Crimson Clover, Annual Rye Grass, Rescue Grass; test: Field experiment: early burndown and herbicidal efficacy of glufosinate + diquat compositions (FIGS. 3A-3C); format: in vivo; settings: burndown agent combined with glufosinate
Source text: “Herbicidal efficacy” or “herbicidal effectiveness,” as used herein, refers to any observable measure of control of weed or grass growth, which can include one or more of the actions of (1) killing, (2) inhibiting growth, reproduction or proliferation, and (3) removing, destroying, or otherwise diminishing the occurrence and activity of weeds or grasses. The herbicidal effectiveness data set forth herein report “control” as a percentage following a standard procedure in the art which reflects a visual assessment of plant mortality and growth reduction by comparison with untreated plants, made by technicians specially trained to make and record such observations. In all cases, a single technician makes all assessments of percent control within any one experiment or trial.
Various examples and comparatives examples of the weed control compositions and RTU solutions were prepared according to Table 2. The RTU solutions were applied to test fields with various types of weeds and grasses, and the burndown effect and/or the long-term efficacy of the test RTU solutions are observed and compared. Equipment, sprayer, and selected operating conditions for application of the RTU compositions to the test areas are provided in Table 3.
All field experiments were set in 1 m^2 plots replicated four times in a randomized complete block design with appropriate industry standards and untreated controls. The example compositions and comparative example compositions according to Table 2 were tested in the field experiments. […] Plots were sprayed once, and then assessed for speed to visible activity, percent (%) weed control, and percent residual control over time to determine burndown activity, speed to kill, extended control and residual pre-emergent activity.

| Compound | burndown compared to glufosinate alone | effectiveness as burndown agent, ammonium nonanoate versus Diquat |
| --- | --- | --- |
| CCCCCCCCC(=O)O.N [Ammonium nonanoate] | enhanced burndown compared to glufosinate alone | superior effectiveness compared to Diquat |
| c1cc[n+]2c(c1)-c1cccc[n+]1CC2 [Diquat] | enhanced burndown compared to glufosinate alone | – |
